US20120029054A1, “RNA Interference Mediated Inhibition of GATA Binding Protein 3 (GATA3) Gene Expression Using Short Intefering Nucleic Acid (siNA)” (Merck Sharp & Dohme Corp., priority 2009, published 2012)

Legend:
human GAPDH mRNA = test: GAPDH specificity screen in human MCF7 cells (β-Actin normalised qRT-PCR); type: cell-based; details: normalised to β-Actin, three experiments, mean ± S.D.
Description: A series of probes and primers were used to detect the various mRNA transcripts of the genes of β-Actin (human cell line only), and of GATA3 and GAPDH in mouse and human cell lines. All Taqman probes and primers for the experiments here-in described were supplied as pre-validated sets by Applied Biosystems, Inc. (see Table 2).
The assays were performed on an ABI 7900 instrument, according to the manufacturer's instructions. A TaqMan Gene Expression Master Mix (provided in the Cells-to-CT™, Applied Biosystems, Cat #4399002) was used. The PCR reactions were carried out at 50° C. for 2 min, 95° C. for 20 min followed by 40 cycles at 95° C. for 15 secs and 60° C. for 1 min.
The expression level of the gene of interest and % knock-down was calculated using Comparative Ct method: […]
These same three siNAs were tested for specificity in the human MCF7 cell line at 10 nM concentration to determine the effect of the GATA3 siNAs on the mRNA transcript of human GAPDH. In this assay, the samples from the primary screen, discussed above, O-Actin, a ubiquitously expressed ‘house-keeping’ gene, served as an endogenous control for normalization of the data.

GATA3 mRNA [1] = test: GATA3 mRNA knock-down (Taqman qRT-PCR) after RNAiMax transfection of human MCF7 cells; screen and IC50 dose response; type: cell-based; details: for % KD Human: 10 nM siNA, 24 hrs; for % KD Human / IC50: MCF7 cells; for IC50 / % KD GATA3 mRNA at 10 nM / % KD GATA3 10 nM: mean ± S.D.; for % KD GATA3 mRNA at 10 nM: Table 4, MCF7 cells, no assay mark printed (same values marked * in Table 3); for % KD GATA3 10 nM: Table 5, MCF7 cells, three experiments, no assay mark printed
Outline: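 MCF7 cells (5000/well, 24 h) transfected with siNA–RNAiMax complexes at 10 nM final siNA for 24 h without media change. GATA3 mRNA measured by TaqMan qRT-PCR, alongside β-actin and GAPDH probes. % knock-down by comparative Ct (2^−ΔΔCt) relative to non-targeting control siNA.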

GATA3 protein = test: GATA3 Western Blot in transfected MCF7 cells (6-well plate); type: cell-based, human; details: 30 nM, 48 hours, average band ratio ± S.D.
Description: MCF7 cells were plated in 6-well plates at final counts of 70,000 cells/well in 2 ml of complete growth media. Transfection was performed using 2.5 uL of RNAiMax per well. Final concentration of siNAs was 30 nM (screen) and 30, 0.3, and 0.003 nM (dose response study). Protein lysates were harvested 24, 48, and 72 hours post-transfection (screen) and 72 hours post-transfection (dose response study). Protein lysates were prepared using Cell Disruption Buffer from the PARIS kit (Ambion, cat #1921) according to manufacturer's instructions. Protein concentration was measured using a Bradford Quick Start Kit (Bio-Rad, cat#500-0205).
The protein source for the Western Blot experiments were from transfection of MCF7 cells in a 6 well plate, as described above.
Protein samples were diluted 1:1 in 2× Laemmli buffer with 5% β-mercapto-ethanol and incubated at 95° C. for 5 minutes. 20-40 ug of protein was loaded in each lane of 10% Tris-HCl gel. One lane was designated for MagicMark Protein Standard (Invitrogen # LC5602). The gel was run at 100V for approximately 2 hours. Protein was transferred to a PVDF membrane at 100V for 60 minutes. Once the transfer was finished, the membrane was blocked in 1% Casein in PBS (BioRad Cat#161-0783) for 1 hour on a plate rocker at room temperature followed by the overnight incubation at 4° C. with mouse monoclonal anti-GATA3 primary antibody (Santa Cruz Biotechnology, cat# HG3-31) diluted 1:500 in 1% Casein in PBS. On the next day, the blot was washed 4×5 minutes in PBST (0.1% Tween-20 in PBS) solution and incubated for 30 minutes at room temperature with goat anti-mouse secondary antibody (Pierce Biotechnology, cat#3 31430) diluted 1:20,000 in 1% Casein. […]
The protein bands were quantified by computing their density which is defined by the ratio between the total intensity of all pixels and the area of the rectangle drawn around each band (intensity/mm^2). The density was calculated by the BioRad software.
The level of protein was quantified using the Bio-Rad VersaDoc Imager according to the protocols of that piece of equipment. […]

GATA3 mRNA [2] = test: GATA3 mRNA knock-down (Taqman qRT-PCR) after RNAiMax transfection of mouse RAG cells; type: cell-based; details: 10 nM siNA, 24 hrs, average of 2 experiments
Outline: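 Murine RAG cells, 5000/well, transfected 24 h after plating with siNA (10 nM final) complexed with RNAiMax, harvested after 24 h. GATA3 mRNA quantified by TaqMan qRT-PCR with GAPDH reference; % knock-down by comparative Ct (2^−ΔΔCt) versus non-targeting control siNA.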

Substance	% KD GAPDH 10 nM (human GAPDH mRNA) [%]	% KD Human (GATA3 mRNA [1]; * Hs00231122_m1 Taqman Assay)	% KD Human (GATA3 mRNA [1]; ** Hs00922328_m1 Taqman Assay)	IC50 (GATA3 mRNA [1]) [pM]	% KD GATA3 mRNA at 10 nM (GATA3 mRNA [1]) [%]	% KD GATA3 10 nM (GATA3 mRNA [1]) [%]	Density (GATA3)/Density (α-Tubulin) (GATA3 protein)	% KD Mouse (GATA3 mRNA [2]) [%]
30261-DC: GATA3 siNA duplex, site 1637: sense B cAuccAGAccAGAAAccGA TTB (SEQ 75), antisense UCGGuuucuGGucuGGAuGUU (SEQ 76) (sense CAUCCAGACCAGAAACCGATT; antisense UCGGUUUCUGGUCUGGAUGUU; chemistry not fully specified)	−17 ± 1	77 ± 4* %	77 ± 4** %	51 ± 30	77 ± 4	77 ± 4	0.01 ± 0.00004	72 ± 2
30260-DC: GATA3 siNA duplex, site 1691: sense B GcAuGAcucAcuGGAGGAc TTB (SEQ 73), antisense GUCcuccAGuGAGucAuGcUU (SEQ 74) (sense GCAUGACUCACUGGAGGACTT; antisense GUCCUCCAGUGAGUCAUGCUU; chemistry not fully specified)	−38 ± 9	60 ± 1* %	69 ± 9** %	254 ± 212	60 ± 1	60 ± 1	0.025 ± 0.0007	47 ± 0
